Consider 51 compounds from patent US8003649B2 (AstraZeneca AB, priority 2007, dated 2011).

This assay concerns the target T1, Androgen Receptor (AR) (Homo sapiens, UniProt P10275, T878A).
T1 construct: cell based immuno-fluorescence assay using the LNCaP prostate epithelial cell line; endogenous in cells; host or cells: LNCaP clone FGC (ATCC CRL-1740)
T1 sequence (P10275 1-920 T878A): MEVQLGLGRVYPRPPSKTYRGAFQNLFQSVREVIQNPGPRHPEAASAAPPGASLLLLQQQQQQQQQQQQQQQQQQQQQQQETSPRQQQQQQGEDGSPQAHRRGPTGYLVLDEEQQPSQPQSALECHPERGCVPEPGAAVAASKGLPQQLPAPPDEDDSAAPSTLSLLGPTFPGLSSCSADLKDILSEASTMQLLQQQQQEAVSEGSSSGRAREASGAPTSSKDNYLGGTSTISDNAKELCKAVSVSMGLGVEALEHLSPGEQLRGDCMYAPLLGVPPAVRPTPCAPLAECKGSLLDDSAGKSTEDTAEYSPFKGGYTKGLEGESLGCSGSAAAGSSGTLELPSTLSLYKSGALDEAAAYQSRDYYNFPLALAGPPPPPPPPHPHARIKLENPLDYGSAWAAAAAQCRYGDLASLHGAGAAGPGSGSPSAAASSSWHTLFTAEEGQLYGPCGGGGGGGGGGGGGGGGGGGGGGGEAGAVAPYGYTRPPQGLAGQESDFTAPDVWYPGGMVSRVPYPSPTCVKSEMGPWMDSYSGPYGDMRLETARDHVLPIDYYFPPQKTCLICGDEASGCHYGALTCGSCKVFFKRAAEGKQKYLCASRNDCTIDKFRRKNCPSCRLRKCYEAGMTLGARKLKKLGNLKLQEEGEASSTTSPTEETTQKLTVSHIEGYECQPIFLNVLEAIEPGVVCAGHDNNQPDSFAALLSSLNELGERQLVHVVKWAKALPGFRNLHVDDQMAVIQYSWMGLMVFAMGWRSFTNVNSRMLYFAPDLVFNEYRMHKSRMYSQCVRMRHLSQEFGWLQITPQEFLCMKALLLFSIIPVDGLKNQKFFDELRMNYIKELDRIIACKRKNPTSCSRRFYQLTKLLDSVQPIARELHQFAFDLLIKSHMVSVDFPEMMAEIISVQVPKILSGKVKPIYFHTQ
As to the kind of experiment: LNCaP Androgen Receptor Down-regulation Cell Assay (immunofluorescence end point). In kind it is cell-based. The settings on record: LNCaP prostate carcinoma cells, compound incubation 20-22 hours, 50% reduction of the AR signal; read-out: Androgen Receptor Down-regulation Assay (a) IC50/μM. The method, boiled down:
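AR loss reported as IC50 from curve fits of fluorescence dose-response data, with AR immunostained and read by laser-scanning cytometry. Compound exposure was 20-22 h at 37° C in LNCaP cells grown in 5% charcoal-stripped FBS and plated overnight beforehand.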
In the case of `Fc1cccc(OC2CN(c3ccc4nnc(C(F)(F)F)n4n3)C2)c1` [Example 483, 6-[3-(3-fluorophenoxy)azetidin-1-yl]-3-(trifluoromethyl)[1,2,4]triazolo[4,3-b]pyridazine], the DC50 is over 30 µM.

Take `Fc1ccc(OC2CN(c3ccc4nnc(C(F)(F)F)n4n3)C2)cc1` [Example 484]: the DC50 is over 14 µM.

In the case of `COc1ccc(OC2CN(c3ccc4nnc(C(F)(F)F)n4n3)C2)cc1` [Example 486], the DC50 was over 13 µM.

In the case of `CC(C)(C)OCC1CCN(c2ccc3nnc(C(F)(F)F)n3n2)CC1` [Example 489, 6-[4-(tert-butoxymethyl)piperidin-1-yl]-3-(trifluoromethyl)[1,2,4]triazolo[4,3-b]pyridazine], the DC50 amounted to 3.6 µM.

With `Fc1cccc(OCC2CN(c3ccc4nnc(C(F)(F)F)n4n3)C2)c1` [Example 490], the DC50 was found to be 5.9 µM.

Turning to `Fc1cccc(OCC2CN(c3ccc4nnc(C(F)(F)F)n4n3)C2)c1` [Example 491], the DC50 was determined as 7.2 µM.

As for `FC(F)(F)c1nnc2ccc(N3CC(COc4cccnc4)C3)nn12` [Example 492], the DC50 is over 30 µM.

For the compound `COc1ccc2[nH]cc(C3CCN(c4ccc5nnc(C(F)(F)F)n5n4)CC3)c2c1` [Example 494, 6-[4-(5-methoxy-1H-indol-3-yl)piperidin-1-yl]-3-(trifluoromethyl)[1,2,4]triazolo[4,3-b]pyridazine], the DC50 is 0.43 µM.

Regarding `N#Cc1ccc2[nH]cc(C3CCN(c4ccc5nnc(C(F)(F)F)n5n4)CC3)c2c1` [Example 495, 3-[1-[3-(trifluoromethyl)[1,2,4]triazolo[4,3-b]pyridazin-6-yl]piperidin-4-yl]-1H-indole-5-carbonitrile], the DC50 was determined as 0.35 µM.

For `CN1CCN(C(=O)c2ccc3[nH]cc(C4CCN(c5ccc6nnc(C(F)(F)F)n6n5)CC4)c3c2)CC1` [Example 497], the DC50 was 2.8 µM.

Consider `COCCNC(=O)c1ccc2[nH]cc(C3CCN(c4ccc5nnc(C(F)(F)F)n5n4)CC3)c2c1` [Example 498], for which the DC50 came to 2.4 µM.

In the case of `CN(C)C(=O)c1ccc2[nH]cc(C3CCN(c4ccc5nnc(C(F)(F)F)n5n4)CC3)c2c1` [Example 499], the DC50 worked out at 1.7 µM.

For the compound `O=C(c1ccc2[nH]cc(C3CCN(c4ccc5nnc(C(F)(F)F)n5n4)CC3)c2c1)N1CC[C@@H](O)C1` [Example 500], the DC50 was over 18 µM.

Regarding `O=C(c1ccc2[nH]cc(C3CCN(c4ccc5nnc(C(F)(F)F)n5n4)CC3)c2c1)N1CCOCC1` [Example 502], the DC50 stood at 2.2 µM.

In the case of `O=C(NCCN1CCOCC1)c1ccc2[nH]cc(C3CCN(c4ccc5nnc(C(F)(F)F)n5n4)CC3)c2c1` [Example 503], the DC50 stood at 4.3 µM.

In the case of `COCCN(C)C(=O)c1ccc2[nH]cc(C3CCN(c4ccc5nnc(C(F)(F)F)n5n4)CC3)c2c1` [Example 504], the DC50 amounted to 1.9 µM.

For `O=C(c1ccc2[nH]cc(C3CCN(c4ccc5nnc(C(F)(F)F)n5n4)CC3)c2c1)N1CC[C@H](O)C1` [Example 505], the DC50 was over 19 µM.

Take `FC(F)(F)c1nnc2ccc(N3CCC(c4c[nH]c5ccccc45)CC3)nn12` [Example 507, 6-[4-(1H-indol-3-yl)piperidin-1-yl]-3-(trifluoromethyl)[1,2,4]triazolo[4,3-b]pyridazine]: the DC50 stood at 0.53 µM.

`FC(F)(F)c1nnc2ccc(N3CCC(c4cn(CCN5CCCC5)c5ccccc45)CC3)nn12` [Example 508, 6-[4-[1-(2-pyrrolidin-1-ylethyl)-1H-indol-3-yl]piperidin-1-yl]-3-(trifluoromethyl)[1,2,4]triazolo[4,3-b]pyridazine]: the DC50 was 2.2 µM.

With `COCCN(C)C(=O)c1ccc(C2CCN(c3ccc4nnc(C(F)(F)F)n4n3)CC2)cc1` [Example 512, N-(2-methoxyethyl)-N-methyl-4-[1-[3-(trifluoromethyl)[1,2,4]triazolo[4,3-b]pyridazin-6-yl]piperidin-4-yl]benzamide], the DC50 amounted to 0.87 µM.

For the compound `Cn1nccc1CCOc1ccc(N2CCN(c3ccc4nnc(C(F)(F)F)n4n3)CC2)cc1` [Example 514, 6-[4-[4-[2-(1-methyl-1H-pyrazol-5-yl)ethoxy]phenyl]piperazin-1-yl]-3-(trifluoromethyl)[1,2,4]triazolo[4,3-b]pyridazine], the DC50 was found to be 0.87 µM.

Regarding `FC(F)(F)c1nnc2ccc(N3CCCC(c4ccccc4)C3)nn12` (stereo not drawn) [Example 515, 6-(3-phenylpiperidin-1-yl)-3-(trifluoromethyl)[1,2,4]triazolo[4,3-b]pyridazine], the DC50 is 1.4 µM.

Turning to `FC(F)(F)c1nnc2ccc(N3CCCC(COc4ccccc4)C3)nn12` (stereo not drawn) [Example 516, 6-[3-(Phenoxymethyl)piperidin-1-yl]-3-(trifluoromethyl)[1,2,4]triazolo[4,3-b]pyridazine], the DC50 came out at 1.4 µM.

Regarding `CS(=O)(=O)c1ccc(C2CCN(c3ccc4nnc(C(F)(F)F)n4n3)CC2)cc1` [Example 521], the DC50 came to 5.4 µM.

Consider `CNC(=O)c1ccc(C2CCN(c3ccc4nnc(C(F)(F)F)n4n3)CC2)cc1` [Example 522], for which the DC50 was 3.9 µM.

Regarding `COc1ccc(C2CCN(c3ccc4nnc(C(F)(F)F)n4n3)CC2)cc1` [Example 523], the DC50 was determined as 1 µM.

Take `FC(F)(F)c1ccc(C2CCN(c3ccc4nnc(C(F)(F)F)n4n3)CC2)cc1` [Example 524]: the DC50 amounted to 3.2 µM.

With `Fc1cccc(C2CCN(c3ccc4nnc(C(F)(F)F)n4n3)CC2)c1` [Example 525], the DC50 is 5.2 µM.

Turning to `COc1cccc(C2CCN(c3ccc4nnc(C(F)(F)F)n4n3)CC2)c1` [Example 526], the DC50 is 2.5 µM.

On to `COc1cccc(OC2CCN(c3ccc4nnc(C(F)(F)F)n4n3)CC2)c1` [Example 527], for which the DC50 amounted to 0.67 µM.

Regarding `COc1ccc(OC2CCN(c3ccc4nnc(C(F)(F)F)n4n3)CC2)cc1` [Example 528], the DC50 came to 2.2 µM.

Turning to `Fc1ccccc1OC1CCN(c2ccc3nnc(C(F)(F)F)n3n2)CC1` [Example 529], the DC50 came to 1.9 µM.

`FC(F)(F)c1nnc2ccc(N3CCC(Oc4ccccc4Cl)CC3)nn12` [Example 530]: the DC50 came to 1.6 µM.

Turning to `COc1ccccc1OC1CCN(c2ccc3nnc(C(F)(F)F)n3n2)CC1` [Example 531], the DC50 stood at 1.8 µM.

With `Fc1cccc(OC2CCN(c3ccc4nnc(C(F)(F)F)n4n3)CC2)c1` [Example 532], the DC50 is 0.98 µM.

With `O=C(c1ccccc1)C1CCN(c2ccc3nnc(C(F)(F)F)n3n2)CC1` [Example 533], the DC50 turned out to be 2.3 µM.

In the case of `O=C(c1ccc(F)cc1)C1CCN(c2ccc3nnc(C(F)(F)F)n3n2)CC1` [Example 534], the DC50 is 2.3 µM.

With `FC(F)(F)c1nnc2ccc(N3CCC(Cc4ccccc4)CC3)nn12` [Example 535], the DC50 was determined as 1.9 µM.

For `Fc1ccc(CC2CCN(c3ccc4nnc(C(F)(F)F)n4n3)CC2)cc1` [Example 536], the DC50 was found to be 1.4 µM.

As to `FC(F)(F)c1nnc2ccc(N3CCC(Cc4ccccn4)CC3)nn12` [Example 537], the DC50 came out at 3 µM.

As to `FC(F)(F)c1nnc2ccc(N3CCC(Cc4ccncc4)CC3)nn12` [Example 538], the DC50 was found to be 2.3 µM.

In the case of `FC(F)(F)c1nnc2ccc(N3CCC(Cc4cccnc4)CC3)nn12` [Example 539], the DC50 amounted to 1.5 µM.

Turning to `FC(F)(F)c1nnc2ccc(N3CCC(c4ccncc4)CC3)nn12` [Example 540], the DC50 came out at 1.5 µM.

For the compound `FC(F)(F)c1nnc2ccc(N3CCC(n4ccc5ccccc54)CC3)nn12` [Example 542], the DC50 worked out at 2.6 µM.

Take `FC(F)(F)c1nnc2ccc(N3CCC(Oc4cnccn4)CC3)nn12` [Example 544]: the DC50 is 2.9 µM.

As to `FC(F)(F)c1nnc2ccc(N3CCC(Oc4ccncc4)CC3)nn12` [Example 545], the DC50 is 3.6 µM.

`OC1(Cc2ccccc2)CCN(c2ccc3nnc(C(F)(F)F)n3n2)CC1` [Example 548]: the DC50 was 2.2 µM.

Turning to `OC1(c2ccccc2F)CCN(c2ccc3nnc(C(F)(F)F)n3n2)CC1` [Example 549], the DC50 is 1.6 µM.

Take `OC1(c2ccncc2)CCN(c2ccc3nnc(C(F)(F)F)n3n2)CC1` [Example 550]: the DC50 was 7.2 µM.

Regarding `Fc1ccc(C2=CCN(c3ccc4nnc(C(F)(F)F)n4n3)CC2)cc1` [Example 552], the DC50 was 7.8 µM.

`FC(F)(F)c1nnc2ccc(N3C[C@H]4CC[C@@H](C3)N4Cc3cccnc3)nn12` [Example 553, 6-[(1R,5S)-8-(pyridin-3-ylmethyl)-3,8-diazabicyclo[3.2.1]oct-3-yl]-3-(trifluoromethyl)[1,2,4]triazolo[4,3-b]pyridazine]: the DC50 came to 2.6 µM.
